Target: T1, human PAH with the R408W mutation (A375 R408W cells) (Homo sapiens, UniProt P00439, R408W)
T1 construct: expressed in transfected cells
T1 sequence (P00439 1-452 R408W): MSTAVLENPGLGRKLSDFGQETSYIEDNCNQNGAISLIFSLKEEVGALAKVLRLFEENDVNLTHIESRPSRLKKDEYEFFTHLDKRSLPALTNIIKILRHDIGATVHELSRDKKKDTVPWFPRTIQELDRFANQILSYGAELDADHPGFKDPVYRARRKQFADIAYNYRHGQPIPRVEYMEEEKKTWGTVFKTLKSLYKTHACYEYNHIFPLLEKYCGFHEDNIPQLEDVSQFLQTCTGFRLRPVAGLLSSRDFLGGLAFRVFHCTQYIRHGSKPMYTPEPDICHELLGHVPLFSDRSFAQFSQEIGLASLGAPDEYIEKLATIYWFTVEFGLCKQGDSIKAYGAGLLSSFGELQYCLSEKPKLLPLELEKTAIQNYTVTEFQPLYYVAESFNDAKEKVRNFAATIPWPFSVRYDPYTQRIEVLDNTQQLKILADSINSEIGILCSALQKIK
Test: Cell Based Phenylalanine Flux Assay
Conditions: A375 R408W cells; 24 hrs with compound, then 20 μM sepiapterin and 800 μM 13C9,15N-Phenylalanine for 4 hours; 13C-Tyrosine by LC-MS; average where tested multiple times
In short: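 Stable R408W PAH A375 cells: 24 h compound pretreatment in duplicate, then 4 h with 800 μM isotope-labelled Phe and 20 μM sepiapterin. Labelled Tyr output by LC-MS; AC50 averaged where repeated.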

Row | Compound | AC50 [nM]
1 | CN(C)CCc1ccc2c(C(=O)N3CCc4[nH]cnc4[C@H]3c3nc4cc(F)ccc4o3)cnn2c1 [Example 47, (S)-(6-(2-(dimethylamino)ethyl)pyrazolo[1,5-a]pyridin-3-yl)(4-(5-fluorobenzo[d]oxazol-2-yl)-6,7-dihydro-1H-imidazo[4,5-c]pyridin-5(4H)-yl)methanone] | 1000 to 5000
2 | C[C@@H](O)c1nc(C(F)F)c(C(=O)N2CCc3[nH]cnc3[C@H]2c2nc3c(F)cccc3o2)o1 [Example 229, (4-(difluoromethyl)-2-((R)-1-hydroxyethyl)oxazol-5-yl)((S)-4-(4-fluorobenzo[d]oxazol-2-yl)-6,7-dihydro-1H-imidazo[4,5-c]pyridin-5(4H)-yl)methanone] | ≤ 500
3 | O=C(c1cnn2cc(N3CCC4(CC3)CC4)ccc12)N1CCc2[nH]cnc2[C@H]1c1nc2cccc(F)c2o1 [Example 395, (S)-(6-(6-azaspiro[2.5]octan-6-yl)pyrazolo[1,5-a]pyridin-3-yl)(4-(7-fluorobenzo[d]oxazol-2-yl)-6,7-dihydro-1H-imidazo[4,5-c]pyridin-5(4H)-yl)methanone] | 500 to 1000
4 | Cc1nn(C)cc1-c1nnc(C(=O)N2CCc3[nH]cnc3[C@H]2c2nc3cc(F)ccc3o2)o1 [Example 881, (S)-(5-(1,3-dimethyl-1H-pyrazol-4-yl)-1,3,4-oxadiazol-2-yl)(4-(5-fluorobenzo[d]oxazol-2-yl)-6,7-dihydro-1H-imidazo[4,5-c]pyridin-5(4H)-yl)methanone] | 1000 to 5000
5 | O=C(c1nnc(-c2ccc(F)c(F)c2)o1)N1CCc2[nH]cnc2[C@H]1c1nc2cc(F)ccc2o1 [Example 75, (S)-(5-(3,4-difluorophenyl)-1,3,4-oxadiazol-2-yl)(4-(5-fluorobenzo[d]oxazol-2-yl)-6,7-dihydro-1H-imidazo[4,5-c]pyridin-5(4H)-yl)methanone] | 500 to 1000
6 | Cn1nc(C(F)(F)F)nc1C(=O)N1CCc2[nH]cnc2[C@H]1c1nc2ccccc2o1 [Example 683, (S)-(4-(benzo[d]oxazol-2-yl)-6,7-dihydro-1H-imidazo[4,5-c]pyridin-5(4H)-yl)(1-methyl-3-(trifluoromethyl)-1H-1,2,4-triazol-5-yl)methanone] | 1000 to 5000
7 | O=C(c1nnc(-c2ccc(OC(F)(F)F)cn2)o1)N1CCc2[nH]cnc2[C@H]1c1nc2cc(F)ccc2o1 [Example 671, (S)-(4-(5-fluorobenzo[d]oxazol-2-yl)-6,7-dihydro-1H-imidazo[4,5-c]pyridin-5(4H)-yl)(5-(5-(trifluoromethoxy)pyridin-2-yl)-1,3,4-oxadiazol-2-yl)methanone] | 1000 to 5000
8 | CC(C)(O)c1nc(C(F)(F)F)c(C(=O)N2CCc3[nH]cnc3[C@H]2c2nc3ccc(F)cc3o2)o1 [Example 255, (S)-(4-(6-fluorobenzo[d]oxazol-2-yl)-6,7-dihydro-1H-imidazo[4,5-c]pyridin-5(4H)-yl)(2-(2-hydroxypropan-2-yl)-4-(trifluoromethyl)oxazol-5-yl)methanone] | ≤ 500
9 | Cn1nc(Br)nc1C(=O)N1CCc2[nH]cnc2[C@@H]1c1nc2c(F)cccc2o1 [Example 472, (R)-(3-bromo-1-methyl-1H-1,2,4-triazol-5-yl)(4-(4-fluorobenzo[d]oxazol-2-yl)-6,7-dihydro-1H-imidazo[4,5-c]pyridin-5(4H)-yl)methanone] | 1000 to 5000
10 | COc1ccc2oc([C@@H]3c4nc[nH]c4CCN3C(=O)c3ocnc3C(F)F)nc2c1 [Example 341, (S)-(4-(difluoromethyl)oxazol-5-yl)(4-(5-methoxybenzo[d]oxazol-2-yl)-6,7-dihydro-1H-imidazo[4,5-c]pyridin-5(4H)-yl)methanone] | ≤ 500

Same assay, conditions: A375 cells expressing R408W PAH; 24 hrs with compound, then 20 μM sepiapterin and 800 μM 13C9,15N-Phenylalanine for 4 hours; 13C-Tyrosine by LC-MS; average where tested multiple times

Row | Compound | AC50 [nM]
11 | COCCCc1ccc2c(C(=O)N3CCc4[nH]cnc4C3c3nc4cc(F)ccc4o3)cnn2c1 (stereo not shown) | ≥ 5000
12 | COCc1ccc2c(C(=O)N3CCc4[nH]cnc4C3c3nc4ccc(F)cc4o3)cnn2c1 (stereo not shown) | ≥ 5000
13 | O=C(c1cncs1)N1CCc2[nH]cnc2C1c1nc2cc(F)ccc2o1 (stereo not shown) | 1000 to 5000
